Measurements taken from patent US9296716B2, “Androgen receptor ligands” (THE PROVOST, FELLOWS, FOUNDATION SCHOLARS, & THE OTHER …, priority 2011, dated 2016).

Biological target: T1, AR-LBD wt (Homo sapiens, UniProt P10275)
T1 sequence (P10275 669-900 limits assumed): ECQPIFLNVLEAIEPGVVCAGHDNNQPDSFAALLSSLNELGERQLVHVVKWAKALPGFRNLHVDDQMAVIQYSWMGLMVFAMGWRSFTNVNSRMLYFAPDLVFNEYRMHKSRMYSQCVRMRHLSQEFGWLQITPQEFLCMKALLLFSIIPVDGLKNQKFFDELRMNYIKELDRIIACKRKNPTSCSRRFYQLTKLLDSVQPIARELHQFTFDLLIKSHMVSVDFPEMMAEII
Test: Lanthascreen TR-FRET AR coactivator (D11-FxxLF) assay, AR-LBD wt
Assay type: biochemical
Details: TR-FRET in agonist and antagonist mode

`C/C(=N\NC(=O)c1cc2ccccc2cc1O)C1C(=O)c2ccccc2C1=O` [MDG603] was tested, and the “type of AR antagonism (full / partial)” value was “full AR antagonists”.

Same assay, conditions: TR-FRET, D11-FxxLF peptide, DHT = EC80; read-out: Activity (AR wt TR-FRET)

Point of comparison: `C/C(=N\NC(=O)c1cc2ccccc2cc1O)C1C(=O)c2ccccc2C1=O` [MDG603], IC50 11.3 ± 2.6 µM. Against it:
- COc1ccc(/C=N/NC(=O)c2cc3ccccc3cc2O)cc1O [MDG494] — higher, > 100 µM
- O=C(N/N=C/c1ccc2ccccc2c1O)c1cc2ccccc2cc1O [MDG624] — higher, > 100 µM
- C/C(=N\NC(=O)c1cc2ccccc2cc1O)c1ccc2ccccc2c1 [MDG626] — higher, > 100 µM
- COc1cc(Cl)cc(/C=N/NC(=O)c2cc3ccccc3cc2O)c1O [MDG615] — higher, > 100 µM
- Cc1ccc(O)c(/C=N/NC(=O)c2cc3ccccc3cc2O)c1 [MDG609] — higher, > 100 µM
- CCOc1cc(/C=N/NC(=O)c2cc3ccccc3cc2O)ccc1O [MDG481] — higher, > 100 µM
- COc1cc2ccccc2cc1C(=O)N/N=C/c1ccccc1O [MDG600] — higher, > 100 µM
- COc1ccc(/C=N/NC(=O)c2cc3c(ccc4ccccc43)o2)c2ccccc12 [MDG503] — higher, > 100 µM
- CCOc1cc(/C=N/NC(=O)c2cc3ccccc3o2)cc(I)c1OC [MDG598] — higher, > 100 µM
- O=C(N/N=C(\c1ccccc1)c1ccc2ccccc2c1)c1cc2ccccc2cc1O [MDG627] — higher, > 100 µM
- COc1cc(Br)cc(/C=N/NC(=O)c2cc3c(ccc4ccccc43)o2)c1O [MDG501] — higher, > 100 µM
- COc1ccc(/C=N/NC(=O)c2cc3c(ccc4ccccc43)o2)cc1O [MDG507] — higher, > 100 µM
- O=C(N/N=C/c1cccc(O)c1O)c1ccccc1O [MDG486] — higher, > 100 µM
- O=C(N/N=C/c1cc2ccccc2cc1O)c1ccc(C(=O)N/N=C/c2cc3ccccc3cc2O)cc1 [MDG602] — higher, > 100 µM
- CCN(CC)c1ccc(/C=N/NC(=O)c2cc3ccccc3cc2O)cc1 [MDG493] — higher, > 100 µM
- Nc1ccccc1/C=N/NC(=O)c1cc2ccccc2cc1O [MDG632] — higher, > 100 µM
- O=C(N/N=C/c1ccc(O)c(Br)c1)c1cc2c(ccc3ccccc32)o1 [MDG500] — higher, > 100 µM
- O=C(N/N=C/c1cc(I)ccc1O)c1cc2ccccc2cc1O [MDG613] — higher, > 100 µM
- COc1cc(/C=N/NC(=O)c2cc3c(ccc4ccccc43)o2)cc(OC)c1OC [MDG511] — higher, > 100 µM
- O=C(N/N=C/c1cccnc1)c1cc2ccccc2cc1O [MDG482] — higher, > 100 µM
- COc1cc(/C=N/NC(=O)c2cc3ccccc3cc2O)cc(OC)c1O [MDG489, 3-hydroxy-N′-(4-hydroxy-3,5-dimethoxybenzylidene)-2-naphthohydrazide] — higher, > 100 µM
- COc1cc(/C=N/NC(=O)c2cc3c(ccc4ccccc43)o2)c(Br)cc1O [MDG516] — higher, > 100 µM
- O=C(N/N=C/c1ccc(Cl)c([N+](=O)[O-])c1)c1cc2ccccc2cc1O [MDG623] — higher, > 100 µM
- CC(C)Oc1ccc(/C=N/NC(=O)c2cc3c(ccc4ccccc43)o2)cc1 [MDG502] — higher, > 100 µM
- O=C(N/N=C/c1ccccc1[N+](=O)[O-])c1cc2ccccc2cc1O [MDG631] — higher, > 100 µM
- COc1ccccc1/C=N/NC(=O)c1ccc2ccccc2c1O [MDG599] — higher, > 100 µM
- O=C(N/N=C/c1cccc(Cl)c1O)c1cc2ccccc2cc1O [MDG618, 3-hydroxy-N′-(2-hydroxy-3-chlorobenzylidene)-2-naphthohydrazide] — higher, > 200 µM
- O=C(N/N=C/c1cccc(O)c1O)c1ccccc1 [MDG485] — higher, > 100 µM
- O=C(N/N=C/c1ccc2ccccc2c1)c1cc2ccccc2cc1O [MDG625] — higher, > 100 µM
- COc1c(Cl)cc(/C=N/NC(=O)c2cc3c(ccc4ccccc43)o2)cc1Cl [MDG513] — higher, > 100 µM
- CCOc1c(Cl)cc(/C=N/NC(=O)c2cc3c(ccc4ccccc43)o2)cc1Cl [MDG514] — higher, > 100 µM
- CCOc1ccc(/C=N/NC(=O)c2cc3c(ccc4ccccc43)o2)cc1 [MDG512] — higher, > 100 µM
- Cc1ccccc1/C=N/NC(=O)c1cc2ccccc2cc1O [MDG492] — higher, > 100 µM
- COc1ccc(C(=O)NNC(=O)c2cc3ccccc3cc2O)cc1 [MDG484] — higher, > 100 µM
- O=C(N/N=C/c1cccc2ccccc12)c1cc2ccccc2cc1O [MDG607] — higher, > 100 µM
- O=C(N/N=C/c1ccccc1C(=O)O)c1cc2ccccc2cc1O [MDG490] — higher, > 100 µM
- CCCOc1ccc(/C=N/NC(=O)c2cc3c(ccc4ccccc43)o2)cc1OC [MDG509] — higher, > 100 µM
- O=C(N/N=C/c1ccc2ccccc2c1)c1ccccc1O [MDG487] — higher, > 100 µM
- O=C(N/N=C/c1cccc(OCc2ccccc2)c1)c1cc2ccccc2cc1O [MDG495] — higher, > 100 µM
- O=C(N/N=C/c1ccccc1)c1cc2ccccc2cc1O [MDG628, 3-hydroxy-N′-benzylidene-2-naphthohydrazide] — higher, > 100 µM
- O=C(N/N=C/c1cccc(Cl)c1Cl)c1cc2ccccc2cc1O [MDG496] — higher, > 100 µM
- COc1cc(/C=N/NC(=O)c2cc3c(ccc4ccccc43)o2)cc(Cl)c1OCc1ccccc1 [MDG515] — higher, > 100 µM
- CCCOc1ccc(/C=N/NC(=O)c2cc3c(ccc4ccccc43)o2)cc1OCC [MDG510] — higher, > 100 µM
- COc1ccc(/C=N/NC(=O)c2cc3c(ccc4ccccc43)o2)cc1C [MDG504] — higher, > 100 µM
- O=C(N/N=C/c1ccc(OCc2ccccc2)cc1)c1cc2c(ccc3ccccc32)o1 [MDG499] — higher, > 100 µM
- O=C(N/N=C/c1cc(Cl)ccc1[N+](=O)[O-])c1cc2ccccc2cc1O [MDG633] — higher, > 100 µM
- C/C(=N\NC(=O)c1cc2ccccc2cc1O)c1cc(Cl)ccc1O [MDG621, 3-hydroxy-N′-[(1E)-1-(2-hydroxy-5-chlorophenyl)ethylidene]-2-naphthohydrazide] — higher, > 100 µM
- O=C(N/N=C/c1cc(Cl)ccc1O)c1ccc2ccccc2c1 [MDG622] — higher, > 100 µM
- CC(C)(C)c1ccc(O)c(/C=N/NC(=O)c2cc3ccccc3cc2O)c1 [MDG610] — higher, > 100 µM
- COc1ccccc1/C=N/NC(=O)c1cc2ccccc2cc1O [MDG619] — higher, > 100 µM
- C/C(=N\NC(=O)c1cc2ccccc2cc1O)c1ccco1 [MDG604] — higher, > 100 µM
- CCOc1ccc(/C=N/NC(=O)c2cc3ccccc3cc2O)cc1O [MDG488] — higher, > 100 µM
- COc1cccc(/C=N/NC(=O)c2cc3c(ccc4ccccc43)o2)c1 [MDG505, N′-(3-methoxybenzylidene)naphtho[2,1-b]furan-2-carbohydrazide] — higher, > 100 µM
- COc1ccc(Br)cc1/C=N/NC(=O)c1cc2ccccc2cc1O [MDG620] — higher, > 100 µM
- Cc1cccc(/C=N/NC(=O)c2cc3ccccc3cc2O)c1 [MDG497] — higher, > 100 µM
- O=C(C/C=N/C=N/NC(=O)c1ccccc1O)c1ccccc1O [MDG601] — higher, > 100 µM
